target: T1, BTK (Homo sapiens, UniProt Q06187); assay: In vitro BTK kinase assay: BTK-POLYGAT-LS ASSAY; format: biochemical; conditions: ATP 10 uM
T1 construct: purchased Upstate 14-552
In short: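 BTK phosphorylation of polyGAT (100 nM final) with ATP at 10 μM final, 10 mM Tris-HCl pH 7.5 kinase buffer, quenched by EDTA after 30 min. Potency given as IC50.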

T1 sequence (Q06187 whole entry): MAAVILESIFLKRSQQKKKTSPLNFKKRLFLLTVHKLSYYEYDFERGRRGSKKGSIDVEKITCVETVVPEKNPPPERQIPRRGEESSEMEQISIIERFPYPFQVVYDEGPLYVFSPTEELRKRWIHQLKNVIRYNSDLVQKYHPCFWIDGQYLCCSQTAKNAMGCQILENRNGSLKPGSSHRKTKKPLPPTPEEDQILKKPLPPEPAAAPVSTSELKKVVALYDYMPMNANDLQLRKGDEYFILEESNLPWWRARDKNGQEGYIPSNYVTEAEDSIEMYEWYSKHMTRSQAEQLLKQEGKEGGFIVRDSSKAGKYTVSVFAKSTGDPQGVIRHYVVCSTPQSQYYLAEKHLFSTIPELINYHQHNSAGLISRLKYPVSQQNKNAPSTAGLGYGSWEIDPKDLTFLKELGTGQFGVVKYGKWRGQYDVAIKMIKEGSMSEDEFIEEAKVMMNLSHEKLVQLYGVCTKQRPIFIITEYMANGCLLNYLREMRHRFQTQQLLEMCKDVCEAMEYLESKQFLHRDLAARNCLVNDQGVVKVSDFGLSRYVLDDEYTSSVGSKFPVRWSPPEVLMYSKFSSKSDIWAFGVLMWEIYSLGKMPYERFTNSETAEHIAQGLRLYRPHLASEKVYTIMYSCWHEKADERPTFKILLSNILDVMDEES

IC50 [nM]	Structure (SMILES)
> 10000	O=C(CNc1cccc(CN2CCCCC2)c1)NC1CCCN(c2ncnc3[nH]ccc23)C1 (stereo not drawn) [Example 346]
> 10000	Cc1cc(NCC(=O)NC2CCCN(c3ncnc4[nH]ccc34)C2)n(C)n1 (stereo not drawn) [Example 347]
> 10000	COc1ccc(NCC(=O)NC2CCCN(c3ncnc4[nH]ccc34)C2)cc1 (stereo not drawn) [Example 348]
> 10000	O=C(CNc1cccc(-c2nnco2)c1)NC1CCCN(c2ncnc3[nH]ccc23)C1 (stereo not drawn) [Example 349]
> 10000	Cc1cc(NCC(=O)NC2CCCN(c3ncnc4[nH]ccc34)C2)on1 (stereo not drawn) [Example 350]
> 10000	Cn1nc(-c2ccccc2)cc1NCC(=O)NC1CCCN(c2ncnc3[nH]ccc23)C1 (stereo not drawn) [Example 351]
1000 to 10000	O=C(CNc1ccccn1)NC1CCCN(c2ncnc3[nH]ccc23)C1 (stereo not drawn) [Example 352]
> 10000	O=C(CNc1ccncc1)NC1CCCN(c2ncnc3[nH]ccc23)C1 (stereo not drawn) [Example 353]
> 10000	O=C(CNC1CCCCC1)NC1CCCN(c2ncnc3[nH]ccc23)C1 (stereo not drawn) [Example 354]
> 10000	O=C(CNC1CCc2ccccc21)NC1CCCN(c2ncnc3[nH]ccc23)C1 (stereo not drawn) [Example 355]
> 10000	O=C(CNC1CCCc2ccccc21)NC1CCCN(c2ncnc3[nH]ccc23)C1 (stereo not drawn) [Example 356]
> 10000	O=C(CNCC1CCCCC1)NC1CCCN(c2ncnc3[nH]ccc23)C1 (stereo not drawn) [Example 357]
> 10000	CC(=O)Nc1cccc(NCC(=O)NC2CCCN(c3ncnc4[nH]ccc34)C2)c1 (stereo not drawn) [Example 358]
> 10000	O=C(CNc1ccccc1)N[C@H]1CCN(c2ncnc3[nH]ccc23)C1 [Example 359]
> 10000	O=C(CNc1ccccc1)N[C@@H]1CCN(c2ncnc3[nH]ccc23)C1 [Example 360]
> 10000	O=C(NC1CCCN(c2ncnc3[nH]ccc23)C1)C1NCc2ccccc21 (stereo not drawn) [Example 361]
1000 to 10000	O=C(NC1CCCN(c2ncnc3[nH]ccc23)C1)c1cc2ccccc2[nH]1 (stereo not drawn) [Example 362]
> 10000	O=C(CNC1CCCN(c2ncnc3[nH]ccc23)C1)Nc1ccccc1 (stereo not drawn) [Example 363]
< 100	O=C(NC1CCCCN(c2ncnc3[nH]ncc23)C1)[C@H](Nc1cc(Cl)cc(Cl)c1)C1CC1 (stereo partly drawn) [Example 364]

IC50 [nM]	Structure (SMILES)
< 100	CC[C@H](C)[C@@H](Nc1cc(F)cc(Cl)c1)C(=O)N[C@H]1CN(c2ncnc3[nH]ncc23)CC[C@@H]1C [Example 365]
< 100	C[C@H]1CCN(c2ncnc3[nH]ncc23)C[C@@H]1NC(=O)CNc1ccccc1S(=O)(=O)N1CCCCC1 [Example 366]
100 to 999	CC(C)Oc1ccccc1NCC(=O)N[C@@H]1CCCN(c2ncnc3[nH]ncc23)C1 [Example 367]
100 to 999	CN(C(C)(C)C)S(=O)(=O)c1ccccc1NCC(=O)N[C@@H]1CCCN(c2ncnc3[nH]ncc23)C1 [Example 368]
100 to 999	CC[C@@H](Nc1cc(Cl)cc(Cl)c1)C(=O)N[C@H]1CN(c2ncnc3[nH]ncc23)CC[C@@H]1C [Example 369]
< 100	CC1CCCN(S(=O)(=O)c2ccccc2NCC(=O)N[C@@H]2CCCN(c3ncnc4[nH]ncc34)C2)C1 (stereo partly drawn) [Example 370]
100 to 999	CCC[C@@H](Nc1cccc2c1OC(F)(F)O2)C(=O)N[C@@H]1CCCN(c2ncnc3[nH]ncc23)C1 [Example 371]
100 to 999	CC1CN(S(=O)(=O)c2ccccc2NCC(=O)N[C@@H]2CCCN(c3ncnc4[nH]ncc34)C2)CC(C)O1 (stereo partly drawn) [Example 372]
1000 to 10000	O=C([C@H](Nc1cc(F)cc(Cl)c1)C1CC1)N1CCCCC12CCCN(c1ncnc3[nH]ncc13)C2 (stereo partly drawn) [Example 373]
100 to 999	O=C(CNc1ccccc1C(=O)N1CCOCC1)N[C@@H]1CCCN(c2ncnc3[nH]ccc23)C1 [Example 374]
100 to 999	CN(C)S(=O)(=O)c1ccccc1NCC(=O)N[C@@H]1CCCN(c2ncnc3[nH]ncc23)C1 [Example 375]
100 to 999	CCC[C@@H](Nc1ccccc1C(C)C)C(=O)N[C@@H]1CCCN(c2ncnc3[nH]ncc23)C1 [Example 376]
1000 to 10000	CN1CCN(S(=O)(=O)c2ccccc2NCC(=O)N[C@@H]2CCCN(c3ncnc4[nH]ccc34)C2)CC1 [Example 377]
100 to 999	CC1CN(S(=O)(=O)c2ccccc2NCC(=O)N[C@@H]2CCCN(c3ncnc4[nH]ccc34)C2)CC(C)O1 (stereo partly drawn) [Example 378]
1000 to 10000	O=C([C@H](Nc1cc(F)cc(Cl)c1)C1CC1)N1CCCCC12CCCN(c1ncnc3[nH]ccc13)C2 (stereo partly drawn) [Example 379]
100 to 999	O=C(CNc1ccccc1OCC1CC1)N[C@@H]1CCCN(c2ncnc3[nH]ncc23)C1 [Example 380]
1000 to 10000	O=C(CNc1ccccc1-n1cccn1)N[C@@H]1CCCN(c2ncnc3[nH]ccc23)C1 [Example 381]
< 100	Cc1cc(NCC(=O)N[C@@H]2CCCN(c3ncnc4[nH]ccc34)C2)cc(OC(F)(F)F)c1 [Example 382]
< 100	O=C(CNc1cc(Cl)cc(OC(F)(F)F)c1)N[C@@H]1CCCN(c2ncnc3[nH]ccc23)C1 [Example 383]

IC50 [nM]	Structure (SMILES)
100 to 999	CC(C)(C)Oc1ccccc1NCC(=O)N[C@@H]1CCCN(c2ncnc3[nH]ccc23)C1 [Example 384]
< 100	O=C(CNc1cc(F)cc(Cl)c1)N[C@@H]1CCCN(c2ncnc3[nH]ncc23)C1 [Example 385]
100 to 999	Cc1ccc(F)c(NCC(=O)N[C@@H]2CCCN(c3ncnc4[nH]ccc34)C2)c1 [Example 386]
1000 to 10000	O=C(N[C@@H]1CCCN(c2ncnc3[nH]ccc23)C1)C(Nc1cc(F)cc(Cl)c1)C1COC1 (stereo partly drawn) [Example 387]
1000 to 10000	O=C(O)Cc1cccc(NCC(=O)N[C@@H]2CCCN(c3ncnc4[nH]ccc34)C2)c1 [Example 389]
1000 to 10000	O=C(CNc1cccc(-c2nnco2)c1)N[C@@H]1CCCN(c2ncnc3[nH]ccc23)C1 [Example 390]
1000 to 10000	O=C(N[C@@H]1CCCN(c2ncnc3[nH]ccc23)C1)[C@@H](CC1CC1)Nc1cccc(Cl)c1 [Example 391]
1000 to 10000	O=C(N[C@@H]1CCCN(c2ncnc3[nH]cc(F)c23)C1)[C@H](Nc1cc(Cl)cc(Cl)c1)C1CC1 [Example 392]
1000 to 10000	O=C(N[C@@H]1CCCN(c2ncnc3[nH]ccc23)C1)[C@@H](CC1CC1)Nc1cc(F)cc(Cl)c1 [Example 393]
1000 to 10000	O=C(CNc1cccc(CO)c1)N[C@@H]1CCCN(c2ncnc3[nH]ccc23)C1 [Example 394]
1000 to 10000	O=C(CNc1cccc(-n2cncn2)c1)N[C@@H]1CCCN(c2ncnc3[nH]ccc23)C1 [Example 395]
1000 to 10000	O=C(CNc1cccc(-c2cc[nH]n2)c1)N[C@@H]1CCCN(c2ncnc3[nH]ccc23)C1 [Example 396]
1000 to 10000	CC(O)c1cccc(NCC(=O)N[C@@H]2CCCN(c3ncnc4[nH]ccc34)C2)c1 (stereo partly drawn) [Example 397]
1000 to 10000	Cc1c(O)cccc1NCC(=O)N[C@@H]1CCCN(c2ncnc3[nH]ccc23)C1 [Example 398]
1000 to 10000	O=C(CNc1cccc(-c2nnn[nH]2)c1)N[C@@H]1CCCN(c2ncnc3[nH]ccc23)C1 [Example 400]
1000 to 10000	O=C(CNc1cccc(O)c1)N[C@@H]1CCCN(c2ncnc3[nH]ccc23)C1 [Example 401]
1000 to 10000	CCc1cccc(C)c1NCC(=O)N[C@@H]1CCCN(c2ncnc3[nH]ccc23)C1 [Example 403]
1000 to 10000	O=C(CNc1cccc2ncccc12)N[C@@H]1CCCN(c2ncnc3[nH]ccc23)C1 [Example 405]
1000 to 10000	O=C(CNc1ccc2[nH]ncc2c1)N[C@@H]1CCCN(c2ncnc3[nH]ccc23)C1 [Example 406]

— patent publication US9029359B2, “Heteroaryl Btk inhibitors” (Biogen Idec MA, Inc., priority 2009, dated 2015)
